Target: HMG-CoA reductase (Rattus norvegicus)
Test: In vitro inhibition of rat liver microsomal HMG-CoA reductase activity

Structure (SMILES) | IC50 [nM]
Cn1nnnc1C(/C=C/[C@H]1C[C@H](O)CC(=O)O1)=C(c1ccc(F)cc1)c1ccc(F)cc1 | 19
Cn1nnnc1C(/C=C/[C@@H]1C[C@@H](O)CC(=O)O1)=C(c1ccc(F)cc1)c1ccc(F)cc1 [6-[4,4-Bis-(4-fluoro-phenyl)-3-(1-methyl-1H-tetrazol-5-yl)-buta-1,3-dienyl]-4-hydroxy-tetrahydro-pyran-2-one (BMY 22089)] | 43

— BindingDB's records for doi:10.1021/jm00129a004 (Bristol Myers Squibb, 1989)
